Experiments:
BMDCs = test: Cytokine (cytometric bead array) and NO (Greiss) production by stimulated BMDCs; type: cell-based, mouse
Experimental: (§1) Bone marrow-derived DCs were differentiated from C57BL/6 bone marrow in the presence of GM-CSF-conditioned media. CD11c^+ CX3CR1^hi myeloid cells and CD11c^+ CX3CR1^− DCs were isolated from the small intestine lamina propria of Cx3cr1^eGFP/+ mice (12). Detection of cell-surface Thy1.1 expression on BMDCs from 10BiT reporter mice was conducted as described previously (24). Cell viability was estimated by change in total cellular ATP levels using CellTiterGlo assays (Promega). Preparation of recombinant SIK proteins and IC50 measurements were conducted as described previously (21). Total RNA was extracted using a NucleoSpin 96 RNA isolation kit (Macherey-Nagel) followed by cDNA synthesis and multiplex RT-PCR using a microfluidic dynamic array (Fluidigm). The concentrations of TNF-α, IL-6, IL-10, IL-12p40, IL-1β and RANTES in culture supernatants were detected using a FlexSet Cytometric bead array (BD Biosciences). Alternatively, IL-10 secretion was quantified using ELISA (BD Biosciences) or AlphaLISA (PerkinElmer) assays. NO production was estimated based on nitrate content in culture medium using the Greiss reagent.
C57BL/6 mice were euthanized and bone marrow harvested from femurs and tibias as described previously (Graham D B, et al. (2007) An ITAM-signaling pathway controls cross-presentation of particulate but not soluble antigens in dendritic cells. The Journal of experimental medicine 204(12):2889-2897). BMDCs were differentiated DMEM supplemented with 2 mM GlutaMAX, 10% (vol/vol) FBS, penicillin, streptomycin and 2% mouse GM-CSF conditioned media derived from TOPO cells. Cultures were differentiated for 7 days and routinely analyzed for >90% CD11c (APC anti-CD11c clone HL3; BD Biosciences) positivity by flow cytometry before use in experiments. Lentiviral transduction of bone marrow cultures was conducted by addition of 293T culture supernatants containing lentiviral particles encoding the CREB dependent luciferase reporter construct or CRTC3 targeting or control shRNAs one day post-isolation. Stable integration of lentiviral shRNA constructs was selected by addition of puromycin (3 μg/mL) on day 4 post-transduction. After 2 days, stably transduced BMDCs were released from selection and used in subsequent assays. Unless otherwise indicated, cells were treated for 2 days with PGE2 (5 μM) or HG-9-91-01 (0.5 μM) or an equivalent concentration of DMSO (≤0.5%) and then stimulated for 18 hr with LPS (100 ng/mL), R848 (10 μg/mL) or zymosan (4 μg/mL).
After stimulation of cells with microbial ligands, the culture medium was removed, clarified by centrifugation for 10 min at 14,000×g, and the concentration of TNF-α, IL-6, IL-10, IL-12p40, IL-1β and RANTES were measured using FlexSet Cytokine Bead Array (BD Biosciences) according to the manufacturer's instructions. Where indicated, ELISAs were used to detect IL-10 and IL-12p70 (BD Biosciences) according to the manufacturer's instructions. NO production was estimated based on nitrate content in culture medium using the Greiss reagent as described previously (Miletic A V, et al. (2007) Vav proteins control MyD88-dependent oxidative burst. Blood 109(8):3360-3368).

SIK1 = target: T1, SIK1 (Homo sapiens, UniProt P57059); test: Protein kinase assay ([γ-32P] ATP, phosphocellulose paper) against SIK1; type: biochemical; details: read-out: Enzyme Inhibition IC50 SIK1
T1 construct: made in house
Experimental: as §1, with “Total RNA was extracted using a NucleoSpin 96 RNA isolation kit (Macherey-Nagel) followed by cDNA synthesis and multiplex RT-PCR using a microfluidic dynamic array (Fluidigm).” left out, “NO production was estimated based on nitrate content in culture medium using the Greiss reagent.” left out
In another set of experiments, the activities of the SIK inhibitors described herein against SIK were determined according to the methods reported in Hastie et al., Nature Protocols, 2006, 1, 968-971. […]
The specific activity of the [γ-^32P] […] To measure the concentration of ATP, a sample of such a stock solution was diluted to 20 μM, and the absorbance of the diluted sample was measured at 259 nm. The absorbance of a 20-μM stock solution of ATP at 259 nm was about 0.31. […] ATP to produce a radioactivity of 1×10^5 to 1×10^6 c.p.m. per nmol. […]

T1 sequence (P57059 whole entry): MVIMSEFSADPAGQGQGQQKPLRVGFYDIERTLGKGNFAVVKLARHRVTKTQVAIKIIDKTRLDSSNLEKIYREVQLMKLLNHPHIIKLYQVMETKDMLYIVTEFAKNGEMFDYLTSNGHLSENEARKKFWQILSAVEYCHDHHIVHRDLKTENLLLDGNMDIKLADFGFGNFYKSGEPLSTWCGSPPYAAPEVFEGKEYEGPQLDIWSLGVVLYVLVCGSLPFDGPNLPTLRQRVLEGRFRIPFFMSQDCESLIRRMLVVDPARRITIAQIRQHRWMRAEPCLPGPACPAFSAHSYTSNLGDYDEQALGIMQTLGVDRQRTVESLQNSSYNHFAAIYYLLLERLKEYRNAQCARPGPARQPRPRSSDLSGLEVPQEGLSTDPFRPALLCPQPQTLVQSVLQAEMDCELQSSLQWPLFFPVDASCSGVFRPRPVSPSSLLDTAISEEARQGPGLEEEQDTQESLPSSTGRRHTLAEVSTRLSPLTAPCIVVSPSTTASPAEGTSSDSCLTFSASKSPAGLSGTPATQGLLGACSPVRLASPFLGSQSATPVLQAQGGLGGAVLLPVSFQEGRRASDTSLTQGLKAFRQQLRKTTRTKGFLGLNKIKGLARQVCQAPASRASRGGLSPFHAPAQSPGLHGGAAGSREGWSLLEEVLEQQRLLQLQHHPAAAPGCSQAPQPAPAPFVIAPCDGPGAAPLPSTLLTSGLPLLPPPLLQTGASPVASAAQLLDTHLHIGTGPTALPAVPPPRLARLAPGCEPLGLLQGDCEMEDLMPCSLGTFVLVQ

| SMILES | IL-10 secretion (BMDCs; BMDCs pre-treated, LPS, R848 or zymosan 18 hr) | IL-1β production (BMDCs; BMDCs, stimulation with R848 or zymosan) | production of IL-12p40 and TNF-α (BMDCs; BMDCs, versus PGE2, regardless of activating stimuli) | IC50 (SIK1) [µM] |
| --- | --- | --- | --- | --- |
| COc1ccc(N(C(=O)Nc2c(C)cccc2C)c2cc(Nc3ccc(N4CCN(C)CC4)cc3)ncn2)c(OC)c1 [HG-9-91-01] | similarly induced | suppressed | suppressed to a significantly greater extent |  |
| CCN1CCN(c2ccc(Nc3cc(-n4ccnc4Nc4c(C)cccc4C)ncn3)cc2)CC1 [II-1, 6-(2-((2,6-dimethylphenyl)amino)-1H-imidazol-1-yl)-N-(4-(4-ethylpiperazin-1-yl)phenyl)pyrimidin-4-amine] |  |  |  | 0.0362 |
